# Experiments:
# Assay type in all cases: cell-based
# [1] = system: Klebsiella pneumoniae; assay: Variant Micromax assay of cell wall damage by meropenem after tobramycin, twelve strains; conditions: for cell wall lysis by meropenem: tobramycin 4 μg/ml 15 min followed by meropenem 1 μg/ml 60 min
# Description: (§1) After incubation cells were processed using a variant Micromax technology to visualize the affectation or not of the cell wall based on the release or not of the nucleoids contained inside the bacteria. In the same manner described previously, samples from cells from the culture are immersed in an agarose microgel on a slide and incubated with a specific lysing solution that removes the cell wall only in those bacteria whose peptidoglycan was affected, thus releasing in the microgel the nucleoids contained inside. […] The processed bacteria in microgel are dried, stained with a high sensitive fluorochrome for DNA like SYBR Gold and visualized under fluorescence microscopy.
# Further exemplifying the concept described above twelve strains of Klebsiella pneumoniae, 7 susceptible and 5 resistant to tobramycin, were processed using the same rationale and procedure. Specifically, one portion of each was incubated with tobramycin at 4 μg/ml for 75 min. Another portion was incubated with Meropenem at 1 μg/ml for 60 min. Still another portion was incubated with tobramycin at 4 μg/ml for 15 minutes followed by meropenem at 1 μg/ml for 60 min, without removing the tobramycin. A final portion remained without any antibiotics.
# [2] = system: Pseudomonas aeruginosa; assay: Variant Micromax assay of cell enlargement by ceftazidime after tobramycin (Example 7)
# Description: As an example, two strains of Pseudomonas aeruginosa exponentially growing in Mueller-Hinton broth were assayed. These strains were both susceptible to the β-lactam ceftazidime, which inhibits peptidoglycan synthesis. One strain was susceptible and the other resistant to the aminoglycoside tobramycin (an inhibitor of protein synthesis). For the purpose of rapidly distinguishing the susceptible and the resistant strain to tobramycin each strain was subjected to four treatments.
# A portion of each strain was incubated with tobramycin at 4 μg/ml (the CLSI breakpoint of susceptibility) for 75 minutes. An assay of this portion is depicted at FIGS. 31 and 34. Another portion of each strain was incubated with ceftazidime at 0.5 μg/ml for 60 minutes. An assay of this portion is depicted at FIGS. 32 and 35. Still another portion of both strains was incubated with tobramycin at 4 μg/ml for 15 minutes followed by ceftazidime at 0.5 μg/ml for 60 minutes, without removing the tobramycin. Assays of these strains can be seen at FIGS. 33 and 36, respectively. A final portion of each strain was not treated with either antibiotic.
# After incubation with the antibiotics, cells were processed using a variant Micromax technology to visualize the enlargement or not of the bacteria. Samples from each culture were immersed in an agarose microgel on a slide, dried, stained with a high sensitive fluorochrome for DNA like SYBR Gold and visualized under fluorescence microscopy to visualize cell shape and size.
# [3] = system: Pseudomonas aeruginosa; assay: Variant Micromax assay of cell wall damage by meropenem after tobramycin (Example 5); conditions: for release of nucleoids (cell wall damage): tobramycin 4 μg/ml 15 min followed by meropenem 0.2 μg/ml 60 min
# Source text: As an exemplification of this principal, FIGS. 19-24 illustrates assays of two strains of Pseudomonas aeruginosa exponentially growing in Mueller-Hinton broth. Both strains were both susceptible to the β-lactam meropenem, which inhibits peptidoglycan synthesis. One strain was susceptible (FIGS. 19-21) and the other resistant (FIGS. 22-24) to the aminoglycoside tobramycin (inhibitor of protein synthesis).
# For the purpose of rapidly distinguishing susceptible and resistant (i.e. non-susceptible) strains to tobramycin each strain was subjected to four treatments. A portion of each strain was incubated with tobramycin at 4 μg/ml for 75 min (FIGS. 19 and 22). The dose utilized, was indicated by the CLSI as the breakpoint of susceptibility to tobramycin. FIGS. 20 and 23 illustrate an assay from another portion of each strain, which was incubated with Meropenem at 0.2 μg/ml for 60 min. FIGS. 21 and 24, illustrate assays from still another portion of both strains which was incubated with tobramycin at 4 μg/ml for 15 min followed by meropenem at 0.2 μg/ml for 60 min, without removing the tobramycin. Still another portion of both strains was maintained without the addition of either antibiotic.
# as §1
smiles,measurement,setting,value
NC[C@H]1O[C@H](O[C@H]2[C@H](O)[C@@H](O[C@H]3O[C@H](CO)[C@@H](O)[C@H](N)[C@H]3O)[C@H](N)C[C@@H]2N)[C@H](N)C[C@@H]1O [tobramycin],strains resistant to tobramycin,[1]; of twelve strains,5
same,strains susceptible to tobramycin,[1]; of twelve strains,7
same,cell wall lysis by meropenem,[1]; tobramycin-resistant strains,the affectation of the cell wall by meropenem was not suppressed
same,cell wall lysis by meropenem,[1]; tobramycin-susceptible strains,no appearance of cell wall lysis by meropenem
same,cell enlargement,"[2]; tobramycin 4 μg/ml 15 minutes followed by ceftazidime 0.5 μg/ml 60 minutes, tobramycin-resistant strain",bacteria appeared enlarged
same,bacterial shape and size,"[2]; tobramycin alone 4 μg/ml 75 minutes, both strains",does not affect the bacterial shape and size
same,release of nucleoids (cell wall damage),[3]; tobramycin-resistant strain,the nucleoids were released
same,release of nucleoids (cell wall damage),[3]; tobramycin-susceptible strain,"unchanged, non-lysed bacteria"
same,cell wall lysis and bacterial shape,"[3]; tobramycin alone 4 μg/ml 75 min, both strains",does not result in cell wall lysis

# Reference: patent publication US10472663B2, “Procedure for the rapid determination of bacterial susceptibility to antibiotics that inhibit protein synthesis” (ABM TECHNOLOGIES, LLC, priority 2015, dated 2019)
